Measured values as given in patent US20160346324A1, “Method of Inactivating Bacterial Lipases Using Oxidative Chlorine Species” (NovaBay Pharmaceuticals, Inc., priority 2015, published 2016).
Entries after “also recorded” stand apart in the source; their conditions may differ.

Assays:
Type in all cases: biochemical
[1] = target: T1, Burkholderia cepacia lipase (Burkholderia cepacia, UniProt P22088); test: Lipase Activity Assay Kit III, Burkholderia cepacia lipase treated with HOCl; details: one hour at 37° C.
T1 construct: purchased Sigma 62309
T1 sequence (P22088 45-364): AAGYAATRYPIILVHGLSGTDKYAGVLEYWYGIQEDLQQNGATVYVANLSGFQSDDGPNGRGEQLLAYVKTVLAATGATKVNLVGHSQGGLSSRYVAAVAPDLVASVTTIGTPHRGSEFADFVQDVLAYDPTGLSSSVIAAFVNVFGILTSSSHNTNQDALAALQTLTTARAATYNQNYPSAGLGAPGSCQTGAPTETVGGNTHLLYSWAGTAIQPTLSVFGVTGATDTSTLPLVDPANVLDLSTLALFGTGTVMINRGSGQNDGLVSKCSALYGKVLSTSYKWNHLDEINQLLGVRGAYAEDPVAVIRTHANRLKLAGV
Method: (§1) Lipases from Burkholderia cepacia, Pseudomonas fluorescens, Thermus thermophilus, Talaromyces flavus and Burkholderia species were obtained from Sigma (Catalog Numbers 62309, 28602, L3419, L3294 and 75577, respectively) and were diluted into sterile water for testing.
Activity of 0.01% HOCl in saline pH 4 against Burkholderia cepacia lipase was determined as follows. 0.01% HOCl was added to a solution of 2 mg/mL of Pseudomonas cepacia lipase (Sigma Aldrich®, St. Louis, Mo., USA). After an hour of incubation at 37° C., the lipase-HOCl solutions were diluted 500-fold into lipase buffer. The lipase activity was determined using the Lipase Activity Assay Kit III (Sigma Aldrich®, St. Louis, Mo., USA).
(§2) Alternative procedure: Activity of 0.01% HOCl in saline pH 4 against each lipase was determined as follows. 10 μL of 0.01% HOCl was added to 90 μL of 2 mg/mL lipase (final concentration of HOCl 0.001%). After one hour of incubation at 37° C., the lipase-HOCl solutions were diluted 500-fold into lipase buffer. Alternatively, 90 μL of 0.01% HOCl was added to 10 μL solution of 2 mg/mL lipase (final concentration of HOCl 0.009%) and after an hour of incubation at 37° C., the lipase-HOCl solutions were diluted 50-fold into lipase buffer. The lipase activity was determined using the Lipase Activity Assay Kit III (Sigma Aldrich®, St. Louis, Mo., USA).
A SpectraMax® M5 Microplate Reader was used to continuously incubate the microtiter plate at 37° C. and measure the fluorescence ([…]=529/600 nm) every 5 minutes for 1.5 hours after an initial 10-minute incubation period. The results are shown on FIG. 1.
Alternative procedure without a 10 minutes incubation: A SpectraMax® M5 Microplate Reader was used to continuously incubate the microtiter plate at 37° C. and measure the fluorescence ([…]=529/600 nm) every 5 minutes for 1.5 hours with no incubation period. The results are shown on FIG. 1. […] The results are shown on FIGS. 1, 2, and 3. […] In the presence of 0.009% HOCl, all lipases were inactivated (FIGS. 2, 3).

[2] = test system: Pseudomonas fluorescens lipase; test: Lipase Activity Assay Kit III, Pseudomonas fluorescens lipase treated with HOCl; details: one hour at 37° C.
Method: as §1, §2
(§3) Alternative procedure without a 10 minutes incubation: A SpectraMax® M5 Microplate Reader was used to continuously incubate the microtiter plate at 37° C. and measure the fluorescence ([…]=529/600 nm) every 5 minutes for 1.5 hours with no incubation period. The results are shown on FIG. 1. […]
(§4) Activity of lipases from Pseudomonas fluorescens, Thermusthermophilus, flavus and Burkholderia are determined using methods similar to the one described above for Burkholderia cepacia lipase. […]

[3] = test system: Talaromyces flavus lipase; test: Lipase Activity Assay Kit III, Talaromyces flavus lipase treated with HOCl; details: one hour at 37° C.
Method: as §1, §2, §3, §4

lipase = test: Lipase Activity Assay Kit III, lipase stock treated with equal part of test product versus sterile water; details: 0.01% HOCl solution, 37° C. for 1 hour
Method: Merck describes a fluorimetric method where lipase activity is determined using a coupled enzyme reaction, which results in the generation of methylresorufin (lex=529/lem=600 nm) proportional to the enzymatic activity present. One unit of lipase is the amount of enzyme that will generate […] of methylresorufin from the substrate per minute at 37° C. (Lipase Activity Assay Kit III Catalog Number MAK048). The lipase stock was treated with equal part of the test product. The control consisted of equal parts of the lipase stock and sterile water. Both were incubated at 37° C. for 1 hour.
The Lipase Activity Assay Kit III (Sigma MAK048) consisted of materials for a standard, a positive control and background control. Once all the controls and the standard were set-up into a 96-well microtiter plate according to the provided instructions, 2 μL of the lipase treatments were diluted into 998 μL of the provided Lipase Assay Buffer. In the microtiter plate, 2 μL of this dilution was added to 48 μL of the Lipase Assay Buffer in quintuplicate. The reaction mix was added to every well except for the standard.
Using the SpectraMax M5, the plate was shaken and incubated for 3 minutes prior to reading the relative fluorescence units (RFU) at λex/λem=529/600 nm. Incubation was continued at 37° C. and the microtiter plate was read every 5 minutes for 1 hour with shaking prior to every reading.

[4] = 0.001% HOCl final concentration
[5] = 0.009% HOCl final concentration

SMILES: OCl [HOCl, hypochlorous acid]
- inactivation of Burkholderia cepacia lipase [1, 4]: still active
- inactivation of Burkholderia cepacia lipase [1, 5]: inactivation; also recorded: inactivated
- inactivation of bacterial lipase (lipase activity, fluorescence) ([1]; 0.01% HOCl in saline pH 4, 2 mg/mL lipase): completely inactivated
- inactivation of Pseudomonas fluorescens lipase [2, 4]: still active
- inactivation of Pseudomonas fluorescens lipase [2, 5]: inactivation; also recorded: inactivated
- inactivation of Talaromyces flavus lipase [3, 4]: inactivation; also recorded: completely inactivated
- inactivation of Talaromyces flavus lipase [3, 5]: inactivated
- inactivation of lipase versus sterile water control (lipase): inactivates lipase
